# Peptide text beside a SMILES is read from it. * marks the point of attachment. Myristoyl = CCCCCCCCCCCCCC(=O)*
# Test system: NO production
# Experiment: NO production in db/db mouse wounds (nitrite measurement)
# Format: in vivo, db/db mice
# Conditions: day 12, nitrite measurement
# Description: Nitrite Measurement with Griess Reagent. Supernatants from confluent endothelial cells on 10-cm dishes with and without stimulation at 37° C. were analyzed for nitrite level using a Griess Reagent kit according to the manufacturer's instructions. Nitrite levels were normalized to eNOS expression level in the cells, as described in the art (Chen, et al. (2020) FASEB J. 34(4):5838-5850).
# Two 8 mm full thickness excisional wounds were made on the dorsal skin of diabetic db/db mice and then 50 μl of 50 μM Myr-CBD7 peptide was topically applied. […] Reduced CCR10-eNOS interaction was also observed in the mouse wounds following treatment with Myr-CBD7 peptide as determined by Co-IP (FIG. 6).
compound,measurement,value
"CCCCCCCCCCCCCC(=O)N[C@@H](CCCCN)C(=O)N[C@H](C(=O)N[C@@H](CO)C(=O)N[C@@H](C)C(=O)N[C@@H](CO)C(=O)N[C@@H](CC(C)C)C(=O)N[C@@H](CCSC)C(=O)O)[C@@H](C)CC [Myr-CBD7, myr-KISASLM] (Myristoyl-KISASLM-OH)",NO production in wounds,significantly elevated

# Reference: patent publication US20220265759A1, “COMPOSITION AND METHOD FOR PROMOTING WOUND HEALING” (THE BOARD OF TRUSTEES OF THE UNIVERSITY OF ILLIOIS, priority 2019, published 2022)
